Measurements reported in US20230346961A1, “GLP-1 AND GIP RECEPTOR CO-AGONISTS” (Novo Nordisk A/S, priority 2020, published 2023).
Where two headings read alike, the source gives them in different places. Starred links: 1 amine or outer side, 2 acyl side, 3 side chain; linkers in the order of their positions; H or OH if unused. Non-standard residues stand in square brackets, D forms with d. Residues, ends and D or L forms follow the SMILES beside them. Groups on a side chain read outwards from the residue. *: point of attachment. C20 diacid = O=C(O)CCCCCCCCCCCCCCCCCCC(=O)*; γGlu = O=C(O)[C@H](CCC(=O)[*:2])N[*:1]; εLys = N[C@@H](CCCCN[*:1])C(=O)[*:2]; AEEA = NCCOCCOCC(=O)O; Aib = CC(C)(N)C(=O)O

Legend:
mouse GIP receptor = biological target: T1, mouse GIP receptor (Mus musculus, UniProt Q0P543); assay: cell-based
T1 sequence (Q0P543 19-460): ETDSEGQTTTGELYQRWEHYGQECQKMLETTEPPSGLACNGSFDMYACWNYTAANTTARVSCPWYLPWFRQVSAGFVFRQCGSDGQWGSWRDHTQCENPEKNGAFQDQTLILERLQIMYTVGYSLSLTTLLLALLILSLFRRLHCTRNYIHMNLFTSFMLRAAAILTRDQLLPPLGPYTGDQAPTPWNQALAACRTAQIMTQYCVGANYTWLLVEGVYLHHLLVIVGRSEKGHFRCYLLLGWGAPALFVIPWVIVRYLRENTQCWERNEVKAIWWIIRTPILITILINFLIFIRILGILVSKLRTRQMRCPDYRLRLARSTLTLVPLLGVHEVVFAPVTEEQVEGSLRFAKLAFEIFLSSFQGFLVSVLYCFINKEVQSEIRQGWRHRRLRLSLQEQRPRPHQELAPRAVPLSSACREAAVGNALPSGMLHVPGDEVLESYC

mouse GLP-1 receptor = biological target: T2, mouse GLP-1 receptor (Mus musculus, UniProt O35659)
T2 sequence (O35659 22-463): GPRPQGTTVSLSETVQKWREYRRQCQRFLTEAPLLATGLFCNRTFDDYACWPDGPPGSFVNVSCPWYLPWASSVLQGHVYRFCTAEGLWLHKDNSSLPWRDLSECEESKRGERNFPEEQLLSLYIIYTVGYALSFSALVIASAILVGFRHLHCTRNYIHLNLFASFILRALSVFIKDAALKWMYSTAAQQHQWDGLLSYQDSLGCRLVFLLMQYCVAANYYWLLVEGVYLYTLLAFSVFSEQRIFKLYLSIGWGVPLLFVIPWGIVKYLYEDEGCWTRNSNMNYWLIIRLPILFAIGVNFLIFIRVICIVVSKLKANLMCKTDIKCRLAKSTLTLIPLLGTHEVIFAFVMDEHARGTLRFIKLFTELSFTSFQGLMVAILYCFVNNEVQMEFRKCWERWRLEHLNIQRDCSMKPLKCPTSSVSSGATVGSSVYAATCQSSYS
Experimental: (§1) The in vitro functional potency is the measure of target receptor activation in a whole cell assay.
(§2) In vitro functional potency was determined by measuring the response of the target receptor in a reporter gene assay in individual cell lines. […] When the respective receptor is activated, it results in the production of cAMP, which in turn results in expression of the luciferase protein. When assay incubation is completed, luciferase substrate (luciferin) is added resulting in the enzymatic conversion of luciferin to oxyluciferin and producing bioluminescence. The luminescence is measured as the readout for the assay.
(§3) The cells lines used in these assays were BHK cells with BHKTS13 as a parent cell line. The cell lines were derived from a clone containing the CRE luciferase element and were established by further transfection with the respective receptor to obtain the relevant cell line.
(§4) The cells were cultured at 37° C. with 5% CO2 in Cell Culture Medium. They were aliquoted and stored in liquid nitrogen. The cells were kept in continuous culture and were seeded out the day before each assay.
(§5) GLP-1R and GcgR Cell Culture Medium consisted of DMEM medium with 10% FBS, 500 μg/mL G418, and 300 μg/mL hygromycin. GIPR Cell Culture Medium consisted of DMEM medium with 10% FBS, 400 μg/mL G418, and 300 μg/mL hygromycin. Assay Buffer consisted of DMEM w/o phenol red, 10 mM Hepes, 1×Glutamax, 1% ovalbumin, and 0.1% Pluronic F-68 with the addition of HSA at twice the final assay concentration.
(§6) • 1) Cells were plated at 5000 cells/well and incubated overnight in the assay plate. • 2) Cells were washed once in DPBS. • 3) Stocks of the test compounds and reference compounds in concentrations ranging from 100-300 μM were diluted 1:150 in Assay Buffer. Compounds were then diluted 1:10 in column 1 of a 96 deep well dilution plate and then carried across the row creating a 3.5 fold, 12 point dilution curve. • 4) Assay Buffer (50 μl aliquot) with or without HSA was added to each well in the assay plate. • 5) A 50 μl aliquot of compound or blank was transferred from the dilution plate to the assay plate containing the Assay Buffer with or without HSA. • 6) The assay plate was incubated for 3 h in a 5% CO2 incubator at 37° C. 7) The cells were washed once with DPBS. • 8) A 100 μl aliquot of DPBS was added to each well of the assay plate. • 9) A 100 μl aliquot of steadylite plus reagent (light sensitive) was added to each well of the assay plate. • 10) Each assay plate was covered with aluminum foil to protect it from light and shaken at 250 RPM for 30 min at room temperature. • 11) Each assay plate was read in a microtiter plate reader.
(§7) The data from the microtiter plate reader was first regressed in an Excel in order to calculate the x-axis, log scale concentrations based on the individual test compound's stock concentration and the dilutions of the assay. […] The software performs a non-linear regression (log(agonist) vs response). A minimum of two replicates was measured for each sample. The reported values are averages of the replicates.

[1] = Pharmacokinetic study in minipigs (terminal half-life after i.v. administration); assay type: in vivo; details: female, Göttingen, minipig, iv
Experimental: The purpose of this example is to determine the half-life in vivo of the derivatives of the present invention after i.v. administration to minipigs, i.e. the prolongation of their time in the body and thereby their time of action. This is done in a pharmacokinetic (PK) study, where the terminal half-life of the derivative in question is determined. By terminal half-life is generally meant the period of time it takes to […] certain plasma concentration, measured after the initial distribution phase. Female Göttingen minipigs were obtained from Ellegaard Göttingen Minipigs (Dalmose, Denmark) approximately 7-14 months of age and weighing from approximately 16-35 kg were used in the studies. The minipigs were housed individually and fed restrictedly once daily with SDS minipig diet (Special Diets Services, Essex, UK). After at 3 weeks of acclimatisation two permanent central venous catheters were implanted in vena cava caudalis in each animal. The animals were allowed 1 week recovery after the surgery, and were then used for repeated pharmacokinetic studies with a suitable wash-out period between successive derivative dosing. The animals were fasted for approximately 18 hours before dosing and from 0 to 4 hours after dosing, but had adlibitum access to water during the whole period. […] Blood samples (for example 0.8 mL) were collected in 8 mM EDTA buffer and then centrifuged at 4° C. and 1942 g for 10 minutes. Plasma was pipetted into Micronic tubes on dry ice and kept at -20° C. until analysed for plasma concentration of the compounds using ELISA, or a similar antibody-based assay, or LCMS. […] (Pharsight Inc., Mountain View, CA, USA), and the resulting terminal half-lives (harmonic mean) determined.

human GLP-1 receptor = human GLP-1 receptor (Homo sapiens, UniProt P43220); assay: cell-based; details: hGLP-1R
Sequence of human GLP-1 receptor (P43220 24-463): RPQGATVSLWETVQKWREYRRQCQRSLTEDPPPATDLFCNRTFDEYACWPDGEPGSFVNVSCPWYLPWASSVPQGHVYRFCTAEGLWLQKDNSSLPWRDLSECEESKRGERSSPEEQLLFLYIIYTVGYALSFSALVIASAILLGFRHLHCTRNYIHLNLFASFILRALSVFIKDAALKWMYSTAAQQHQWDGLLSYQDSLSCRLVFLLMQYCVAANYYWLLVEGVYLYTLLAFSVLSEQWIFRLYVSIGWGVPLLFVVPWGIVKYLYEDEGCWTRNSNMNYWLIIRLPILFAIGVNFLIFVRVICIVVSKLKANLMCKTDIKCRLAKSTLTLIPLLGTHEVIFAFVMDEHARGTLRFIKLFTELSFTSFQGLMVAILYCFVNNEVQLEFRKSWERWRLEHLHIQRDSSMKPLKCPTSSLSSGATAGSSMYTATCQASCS
Experimental: as §1, §2, §3, §4, §5, §6, §7

human glucagon receptor = human glucagon receptor (Homo sapiens, UniProt P47871); assay: cell-based
Sequence of human glucagon receptor (P47871 26-477): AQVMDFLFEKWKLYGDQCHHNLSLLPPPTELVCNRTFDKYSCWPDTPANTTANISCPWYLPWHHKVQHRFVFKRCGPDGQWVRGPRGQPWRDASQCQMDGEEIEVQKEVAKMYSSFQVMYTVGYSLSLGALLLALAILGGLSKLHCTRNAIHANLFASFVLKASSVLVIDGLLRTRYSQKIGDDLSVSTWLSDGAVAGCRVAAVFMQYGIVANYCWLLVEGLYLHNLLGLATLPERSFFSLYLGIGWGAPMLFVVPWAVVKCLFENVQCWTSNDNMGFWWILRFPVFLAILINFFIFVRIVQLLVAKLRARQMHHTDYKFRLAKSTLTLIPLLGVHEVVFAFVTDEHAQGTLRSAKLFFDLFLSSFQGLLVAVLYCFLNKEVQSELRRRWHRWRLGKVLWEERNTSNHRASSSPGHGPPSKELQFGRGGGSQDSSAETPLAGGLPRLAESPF
Experimental: as §1, §2, §3, §4, §5, §6, §7

Compound | EC50 (mouse GIP receptor) [nM] | EC50 (mouse GLP-1 receptor) [nM] | half-life ([1]; in vivo) [h] | EC50 (human GLP-1 receptor; CRE Luc 0% HSA EC50, 0% HSA) [nM] | EC50 (human GLP-1 receptor; CRE Luc 1% HSA EC50, 1% HSA) [nM] | EC50 (human glucagon receptor) [nM] | half-life ([1]; plasma, minipigs, i.v. administration, harmonic mean, read-out: Terminal half-life t1/2 (converted)) [h]
CC[C@H](C)[C@H](NC(=O)[C@H](CO)NC(=O)[C@H](Cc1ccc(O)cc1)NC(=O)[C@H](CC(=O)O)NC(=O)[C@H](CO)NC(=O)[C@@H](NC(=O)[C@H](Cc1ccccc1)NC(=O)[C@@H](NC(=O)CNC(=O)[C@H](CCC(=O)O)NC(=O)C(C)(C)NC(=O)[C@@H](N)Cc1ccc(O)cc1)[C@@H](C)O)[C@@H](C)O)C(=O)N[C@@H](Cc1ccc(O)cc1)C(=O)N[C@@H](CC(C)C)C(=O)N[C@@H](CCC(=O)O)C(=O)N[C@@H](CCC(=O)O)C(=O)N[C@@H](CCC(N)=O)C(=O)N[C@@H](C)C(=O)N[C@@H](C)C(=O)NC(C)(C)C(=O)N[C@@H](CCCCNC(=O)[C@@H](N)CCCCNC(=O)[C@@H](N)CCCCNC(=O)CC[C@H](NC(=O)CCCCCCCCCCCCCCCCCCC(=O)O)C(=O)O)C(=O)N[C@@H](Cc1ccccc1)C(=O)N[C@H](C(=O)N[C@@H](CC(N)=O)C(=O)N[C@@H](Cc1c[nH]c2ccccc12)C(=O)N[C@@H](CC(C)C)C(=O)N[C@@H](CC(C)C)C(=O)N[C@@H](C)C(=O)NCC(=O)NCC(=O)N1CCC[C@H]1C(=O)N[C@@H](CO)C(=O)N[C@@H](CO)C(=O)NCC(=O)N[C@@H](C)C(=O)N1CCC[C@H]1C(=O)N1CCC[C@H]1C(=O)N1CCC[C@H]1C(=O)N[C@@H](CO)C(N)=O)C(C)C [Compound 27] (H-Y[Aib]EGTFTSDYSIYLEEQAA[Aib]K([εLys-εLys-γGlu-C20 diacid])FVNWLLAGGPSSGAPPPS-NH2; N-terminus assumed) | 0.545 | 0.0042 | 88 | 0.0033 | 0.195 |  | 
CC[C@H](C)[C@H](NC(=O)[C@H](CO)NC(=O)[C@H](Cc1ccc(O)cc1)NC(=O)[C@H](CC(=O)O)NC(=O)[C@H](CO)NC(=O)[C@@H](NC(=O)[C@H](Cc1ccccc1)NC(=O)[C@@H](NC(=O)CNC(=O)[C@H](CCC(=O)O)NC(=O)C(C)(C)NC(=O)[C@@H](N)Cc1ccc(O)cc1)[C@@H](C)O)[C@@H](C)O)C(=O)N[C@@H](Cc1ccc(O)cc1)C(=O)N[C@@H](CC(C)C)C(=O)N[C@@H](CCC(=O)O)C(=O)N[C@@H](CCCCNC(=O)COCCOCCNC(=O)COCCOCCNC(=O)CC[C@H](NC(=O)CCCCCCCCCCCCCCCCCCC(=O)O)C(=O)O)C(=O)N[C@@H](CCC(N)=O)C(=O)N[C@@H](C)C(=O)N[C@@H](C)C(=O)NC(C)(C)C(=O)N[C@@H](CCC(=O)O)C(=O)N[C@@H](Cc1ccccc1)C(=O)N[C@H](C(=O)N[C@@H](CC(N)=O)C(=O)N[C@@H](Cc1c[nH]c2ccccc12)C(=O)N[C@@H](CC(C)C)C(=O)N[C@@H](CC(C)C)C(=O)N[C@@H](C)C(=O)NCC(=O)NCC(=O)N1CCC[C@H]1C(=O)N[C@@H](CO)C(=O)N[C@@H](CO)C(=O)NCC(=O)N[C@@H](C)C(=O)N1CCC[C@H]1C(=O)N1CCC[C@H]1C(=O)N1CCC[C@H]1C(=O)N[C@@H](CO)C(N)=O)C(C)C [Compound 29] (H-Y[Aib]EGTFTSDYSIYLEK([AEEA-AEEA-γGlu-C20 diacid])QAA[Aib]EFVNWLLAGGPSSGAPPPS-NH2; N-terminus assumed) | 0.051 | 0.0018 |  | 0.0062 | 0.429 | > 10 | 
CC[C@H](C)[C@H](NC(=O)[C@H](CO)NC(=O)[C@H](Cc1ccc(O)cc1)NC(=O)[C@H](CC(=O)O)NC(=O)[C@H](CO)NC(=O)[C@@H](NC(=O)[C@H](Cc1ccccc1)NC(=O)[C@@H](NC(=O)CNC(=O)[C@H](CCC(=O)O)NC(=O)C(C)(C)NC(=O)[C@@H](N)Cc1ccc(O)cc1)[C@@H](C)O)[C@@H](C)O)C(=O)N[C@@H](Cc1ccc(O)cc1)C(=O)N[C@@H](CC(C)C)C(=O)N[C@@H](CCC(=O)O)C(=O)N[C@@H](CCCCN)C(=O)N[C@@H](CCCCNC(=O)[C@@H](N)CCCCNC(=O)[C@@H](N)CCCCNC(=O)CC[C@H](NC(=O)CCCCCCCCCCCCCCCCCCC(=O)O)C(=O)O)C(=O)N[C@@H](C)C(=O)N[C@@H](C)C(=O)NC(C)(C)C(=O)N[C@@H](CCC(=O)O)C(=O)N[C@@H](Cc1ccccc1)C(=O)N[C@H](C(=O)N[C@@H](CC(N)=O)C(=O)N[C@@H](Cc1c[nH]c2ccccc12)C(=O)N[C@@H](CC(C)C)C(=O)N[C@@H](CC(C)C)C(=O)N[C@@H](C)C(=O)NCC(=O)NCC(=O)N1CCC[C@H]1C(=O)N[C@@H](CO)C(=O)N[C@@H](CO)C(=O)NCC(=O)N[C@@H](C)C(=O)N1CCC[C@H]1C(=O)N1CCC[C@H]1C(=O)N1CCC[C@H]1C(=O)N[C@@H](CO)C(N)=O)C(C)C [Compound 31] (H-Y[Aib]EGTFTSDYSIYLEKK([εLys-εLys-γGlu-C20 diacid])AA[Aib]EFVNWLLAGGPSSGAPPPS-NH2; N-terminus assumed) | 0.0134 | 0.0013 |  | 0.0019 | 0.0543 | 9.6 | 
CC[C@H](C)[C@H](NC(=O)[C@H](CO)NC(=O)[C@H](Cc1ccc(O)cc1)NC(=O)[C@H](CC(=O)O)NC(=O)[C@H](CO)NC(=O)[C@@H](NC(=O)[C@H](Cc1ccccc1)NC(=O)[C@@H](NC(=O)CNC(=O)[C@H](CCC(=O)O)NC(=O)C(C)(C)NC(=O)[C@@H](N)Cc1ccc(O)cc1)[C@@H](C)O)[C@@H](C)O)C(=O)N[C@@H](Cc1ccc(O)cc1)C(=O)N[C@@H](CC(C)C)C(=O)N[C@@H](CCC(=O)O)C(=O)N[C@@H](CCCCN)C(=O)N[C@@H](CCCCNC(=O)[C@@H](N)CCCCNC(=O)[C@@H](N)CCCCNC(=O)CC[C@H](NC(=O)CCCCCCCCCCCCCCCCCCC(=O)O)C(=O)O)C(=O)N[C@@H](C)C(=O)N[C@@H](C)C(=O)NC(C)(C)C(=O)N[C@@H](CCC(=O)O)C(=O)N[C@@H](Cc1ccccc1)C(=O)N[C@H](C(=O)N[C@@H](CCC(N)=O)C(=O)N[C@@H](Cc1c[nH]c2ccccc12)C(=O)N[C@@H](CC(C)C)C(=O)N[C@@H](CC(C)C)C(=O)N[C@@H](CCC(=O)O)C(=O)NCC(=O)NCC(=O)N1CCC[C@H]1C(=O)N[C@@H](CO)C(=O)N[C@@H](CO)C(=O)NCC(=O)N[C@@H](C)C(=O)N1CCC[C@H]1C(=O)N1CCC[C@H]1C(=O)N1CCC[C@H]1C(=O)N[C@@H](CO)C(N)=O)C(C)C [Compound 35] (H-Y[Aib]EGTFTSDYSIYLEKK([εLys-εLys-γGlu-C20 diacid])AA[Aib]EFVQWLLEGGPSSGAPPPS-NH2; N-terminus assumed) | 0.0213 | 0.0013 |  | 0.0022 | 0.169 |  | 90
